Source: ChEMBL document CHEMBL5226302, “Small-Molecule Inhibitors Targeting the Canonical WNT Signaling Pathway for the Treatment of Cancer” (J Med Chem, 2021)

How the values were obtained:
[1] = Inhibition of Wnt signalling pathway in HEK293 cells assessed growth inhibition of cells by luciferase assay; type: cell-based; settings: Homo sapiens
Catenin beta-1 [2] = target: Catenin beta-1 (Homo sapiens, UniProt P35222); assay: Binding affinity to human beta catenin double mutant assessed as dissociation constant by alpha assay
[3] = Clearance in human liver microsomes; type: ADME, Microsome; settings: read-out: CLH
[4] = Clearance in mouse liver microsomes; type: ADME, Microsome; settings: read-out: CLH
[5] = target: T1, Poly [ADP-ribose] polymerase tankyrase-2 (Homo sapiens, UniProt Q9H2K2); assay: Inhibition of TNKS2 (unknown origin)
T1 sequence (Q9H2K2 whole entry): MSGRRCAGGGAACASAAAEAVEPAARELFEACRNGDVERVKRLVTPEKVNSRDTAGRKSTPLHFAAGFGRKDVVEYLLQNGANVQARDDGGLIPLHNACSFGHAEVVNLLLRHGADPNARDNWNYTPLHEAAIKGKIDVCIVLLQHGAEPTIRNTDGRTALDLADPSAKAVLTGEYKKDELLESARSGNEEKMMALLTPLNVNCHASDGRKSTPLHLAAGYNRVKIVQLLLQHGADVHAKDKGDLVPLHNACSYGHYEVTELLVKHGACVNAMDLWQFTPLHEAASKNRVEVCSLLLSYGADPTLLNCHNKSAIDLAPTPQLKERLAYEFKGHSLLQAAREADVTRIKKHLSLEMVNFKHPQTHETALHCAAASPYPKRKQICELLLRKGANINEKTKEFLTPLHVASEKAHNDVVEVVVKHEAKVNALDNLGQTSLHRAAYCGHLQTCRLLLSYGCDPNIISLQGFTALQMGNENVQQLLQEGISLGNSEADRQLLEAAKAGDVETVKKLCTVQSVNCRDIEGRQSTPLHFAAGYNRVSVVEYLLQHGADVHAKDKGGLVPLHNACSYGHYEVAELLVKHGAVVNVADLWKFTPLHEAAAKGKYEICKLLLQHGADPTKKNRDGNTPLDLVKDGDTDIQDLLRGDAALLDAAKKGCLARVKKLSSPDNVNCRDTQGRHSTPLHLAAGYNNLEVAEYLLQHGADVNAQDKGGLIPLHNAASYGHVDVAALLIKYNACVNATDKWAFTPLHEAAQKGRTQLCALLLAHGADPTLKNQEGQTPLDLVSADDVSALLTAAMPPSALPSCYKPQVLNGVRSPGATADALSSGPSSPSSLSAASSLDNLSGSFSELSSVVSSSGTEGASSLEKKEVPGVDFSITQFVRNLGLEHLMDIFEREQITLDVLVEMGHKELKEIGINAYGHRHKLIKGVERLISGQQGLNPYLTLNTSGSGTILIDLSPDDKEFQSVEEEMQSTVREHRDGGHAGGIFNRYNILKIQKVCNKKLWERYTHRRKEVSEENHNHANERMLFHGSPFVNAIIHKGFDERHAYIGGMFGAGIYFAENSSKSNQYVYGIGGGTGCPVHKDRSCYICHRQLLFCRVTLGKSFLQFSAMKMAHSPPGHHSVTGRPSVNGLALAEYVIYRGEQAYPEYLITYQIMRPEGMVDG

DLD-1 = assay: Antiproliferative activity against human DLD-1 cells assessed as reduction in cell viability by cell proliferation assay; type: functional, cell-based
[6] = Half life in mouse plasma; type: ADME, cell-free
HEK293 [7] = assay: Antitumor activity against human HEK293 cells in CB17-SCID xenografted mouse model at 150 mg/kg relative to control; type: functional
HEK293 [8] = assay: Antitumor activity against human HEK293 cells in CB17-SCID xenografted mouse model at 300 mg/kg relative to control; type: functional
Catenin beta-1 [9] = target: T2, Catenin beta-1 (Homo sapiens, UniProt P35222)
T2 sequence (P35222 whole entry): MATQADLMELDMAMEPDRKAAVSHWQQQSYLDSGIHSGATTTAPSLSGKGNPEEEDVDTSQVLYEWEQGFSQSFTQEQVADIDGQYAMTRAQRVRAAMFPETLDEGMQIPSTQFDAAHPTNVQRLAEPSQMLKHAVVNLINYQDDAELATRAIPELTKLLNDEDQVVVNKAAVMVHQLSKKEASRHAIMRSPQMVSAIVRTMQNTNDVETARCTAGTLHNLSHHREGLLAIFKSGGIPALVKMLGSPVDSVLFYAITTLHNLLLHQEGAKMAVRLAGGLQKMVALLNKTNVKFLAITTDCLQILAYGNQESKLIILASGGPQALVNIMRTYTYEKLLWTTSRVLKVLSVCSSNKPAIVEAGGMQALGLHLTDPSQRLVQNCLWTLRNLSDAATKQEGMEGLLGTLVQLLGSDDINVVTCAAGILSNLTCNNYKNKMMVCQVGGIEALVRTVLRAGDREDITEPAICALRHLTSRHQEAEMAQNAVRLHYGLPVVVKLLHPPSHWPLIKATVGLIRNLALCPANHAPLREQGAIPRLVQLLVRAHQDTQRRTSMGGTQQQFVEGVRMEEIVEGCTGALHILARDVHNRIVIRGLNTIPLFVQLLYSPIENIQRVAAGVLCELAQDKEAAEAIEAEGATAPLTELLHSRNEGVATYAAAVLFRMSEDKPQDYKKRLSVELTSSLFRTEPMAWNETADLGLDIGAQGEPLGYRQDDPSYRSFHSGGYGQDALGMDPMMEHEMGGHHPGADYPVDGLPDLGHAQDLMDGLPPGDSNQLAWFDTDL

[10] = Inhibition of Wnt/beta-catenin signaling pathway in human COLO 205 cells assessed as […]; type: cell-based
HT-29 = assay: Antiproliferative activity against human HT-29 cells assessed as reduction in cell viability; type: functional, cell-based
HCT-116 = assay: Antiproliferative activity against human HCT-116 cells assessed as reduction in cell viability; type: functional, cell-based
[11] = Antiproliferative activity against human SW403 cells assessed as reduction in cell viability; type: functional, cell-based; settings: SW-403

Compound `Cc1cc(/C=C/c2ccc3cc(N(C)C)ccc3[n+]2C)c(C)n1-c1ccccc1` has an IC50 [1] of 10 nM.

`O=C(Nc1ccc(-c2ccc(F)cc2)c(O[C@H]2CCNC2)c1)c1ccc(O[C@H]2CCNC2)c(-c2ccc(F)c(F)c2)c1` showed a Kd (Catenin beta-1 [2]) of 97 nM.

With `CC1(C)OC(=O)N(c2ccc(-c3cnc(N)c(-c4ncccn4)c3)cc2)[C@H]1c1ccccc1` the microsomal CLint [3] was 33 µL/min/mg and the microsomal CLint [4] was 48 µL/min/mg.

With `CC1(C)OC(=O)N([C@H]2CC[C@H](c3cnc(N)c(-c4ncccn4)c3)CC2)[C@H]1c1ccccc1` the IC50 [5] was 22 nM and the IC50 (DLD-1) was 3000 nM.

Work on `CC1(C)OC(=O)N(c2ccc(C(=O)Nc3cccc4cccnc34)cc2)[C@H]1c1ccccc1` yielded a half-life [6] of 5.2 h.

`COc1ccc(-n2c(SCc3nc(-c4ccc(C)cc4)no3)nnc2-c2ccncc2)cc1` showed an Activity (HEK293 [7]) of 33% and an Activity (HEK293 [8]) of 35%.

With `On1ncc2cc(CCc3nn[nH]n3)ccc21` the IC50 (Catenin beta-1 [9]) was 500 nM.

`Cn1cc(-c2ccc(-c3cncc(Cl)c3N3CCC4(CCNC4=O)CC3)cc2)cn1` showed an IC50 [10] of 5 nM.

Work on `CN(c1ccc(C(F)(F)F)cc1)S(=O)(=O)c1ccc(C(=O)Nc2nc(-c3ccccn3)cs2)cc1` yielded an EC50 (HT-29) of 132 nM, an EC50 (HCT-116) of 123 nM and an EC50 [11] of 123 nM.
